Earlier results, collected in patent US10047050B2, “3,4-di-substituted pyridine compound, methods of using and compositions comprising the same” (ARDEA BIOSCIENCES, INC., priority 2011, dated 2018).

Settings: cited from earlier work
[1] = individuals treated with probenecid

SMILES	incidence of side effects (of all individuals treated with the drug) [%]	individuals who develop intolerance [1]	individuals who fail to achieve reduction of serum uric acid levels <6 mg/dL [1]
Oc1ncnc2[nH]ncc12 [Allopurinol, allopurinol]	20	–	–
CCCN(CCC)S(=O)(=O)c1ccc(C(=O)O)cc1 [probenecid]	–	one-third	25-50%
